Assays:
Experiment in all cases: relative viability (nuclei count vs DMSO), 5 days (fraction); higher = more cells survive
RU-SKI 43 + Linsitinib = compound: CC[C@@H](C)CNCC(=O)N1CCC2=C([C@@H]1COC3=CC=CC(=C3)C)C=CS2 [RU-SKI 43] + C[C@]1(O)C[C@@H](c2nc(-c3ccc4ccc(-c5ccccc5)nc4c3)c3c(N)nccn32)C1 [Linsitinib] (partner 1 µM)
In short: (§1)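 Lung cancer cell lines, seeded in 1536-well plates, were treated the following day by pin tool with a single drug or with five library-drug doses (not always all listed) in √10 steps on top of a fixed anchor-drug dose. Cells were fixed and nuclei stained in one step after 5 days, and nuclei were counted. Relative viability is the nuclei count for treated wells divided by that for vehicle wells, reported as medians of duplicate plates.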

Irinotecan + Decitabine = compound: CCc1c2c(nc3ccc(OC(=O)N4CCC(N5CCCCC5)CC4)cc13)-c1cc3c(c(=O)n1C2)COC(=O)[C@]3(O)CC [Irinotecan] + Nc1ncn([C@H]2C[C@H](O)[C@@H](CO)O2)c(=O)n1 [Decitabine] (partner 2 µM)
In short: as §1

Irinotecan + Foretinib = compound: CCc1c2c(nc3ccc(OC(=O)N4CCC(N5CCCCC5)CC4)cc13)-c1cc3c(c(=O)n1C2)COC(=O)[C@]3(O)CC [Irinotecan] + COc1cc2c(Oc3ccc(NC(=O)C4(C(=O)Nc5ccc(F)cc5)CC4)cc3F)ccnc2cc1OCCCN1CCOCC1 [Foretinib] (partner 0.25 µM)
In short: as §1

MK-8033 + Alpelisib = compound: Cn1cc(-c2cnc3ccc4ccc(CS(=O)(=O)NCc5ccccn5)cc4c(=O)c3c2)cn1 [MK-8033] + Cc1nc(NC(=O)N2CCC[C@H]2C(N)=O)sc1-c1ccnc(C(C)(C)C(F)(F)F)c1 [Alpelisib] (partner 2 µM)
In short: as §1

Cell Line	relative viability (RU-SKI 43 + Linsitinib; first compound 0.1 µM)	relative viability (RU-SKI 43 + Linsitinib; first compound 0.3162 µM)	relative viability (RU-SKI 43 + Linsitinib; first compound 1 µM)	relative viability (RU-SKI 43 + Linsitinib; first compound 3.162 µM)	relative viability (RU-SKI 43 + Linsitinib; first compound 10 µM)	relative viability (Irinotecan + Decitabine; first compound 0.6325 µM)	relative viability (Irinotecan + Decitabine; first compound 2 µM)	relative viability (Irinotecan + Decitabine; first compound 6.325 µM)	relative viability (Irinotecan + Decitabine; first compound 20 µM)	relative viability (Irinotecan + Foretinib; first compound 0.6325 µM)	relative viability (Irinotecan + Foretinib; first compound 2 µM)	relative viability (Irinotecan + Foretinib; first compound 6.325 µM)	relative viability (Irinotecan + Foretinib; first compound 20 µM)	relative viability (MK-8033 + Alpelisib; first compound 0.02 µM)	relative viability (MK-8033 + Alpelisib; first compound 0.06325 µM)	relative viability (MK-8033 + Alpelisib; first compound 0.2 µM)	relative viability (MK-8033 + Alpelisib; first compound 0.6325 µM)	relative viability (MK-8033 + Alpelisib; first compound 2 µM)
NCI-H2009	1.2	1.23	1.24	1.21	1.16	0.358	0.32	0.266	0.135	0.973	0.688	0.311	0.16	1.13	1.12	1.09	1.11	1.14
NCI-H460	0.789	1.84	1.08	1.02	0.695	0.353	0.317	0.106	0.0426	0.815	0.418	0.136	0.0629	0.496	0.368	0.348	0.4	0.435
COR-L 105	0.955	1.08	1.02	1.08	0.945	0.605	0.586	0.555	0.364	1.11	0.8	0.682	0.524	0.822	1.07	0.962	0.928	0.733
BEN	1.02	1.2	1.15	0.965	0.922	0.503	0.793	0.493	0.504	0.328	0.613	0.206	0.324	0.914	0.89	1	1.08	1
NCI-H1993	0.745	0.732	0.661	0.721	0.762		0.581	0.542	0.6	0.769	0.663	0.706	0.644	0.612	0.611	0.649	0.714	0.675
NCI-H838	1.05	1.22	1.07	1	1	0.444	0.47	0.277	0.18	1.11	0.743	0.392	0.298	1	0.979	0.94	0.98	0.974
NCI-H1755	1.02	1.13	1.05	1.02	0.993	0.58	0.503	0.427	0.491	0.9	0.667	0.35	0.462	0.931	0.883	0.857	0.909	0.849
NCI-H1666	0.854	0.916	0.8	0.714	0.568	0.551	0.62	0.547	0.545	0.774	0.689	0.654	0.404	0.937	1.01	0.874	0.998	0.942
NCI-H2085	0.929	0.875	1.01	0.917	0.772	0.536	0.391	0.38	0.382	1.06	0.775	0.464	0.54	0.873	0.936	0.925	0.823	0.971

Reference: the supplement of paper PMC10307832
